Data published in US20210353701A1, “ULTRAVIOLET LIGHT-INDUCED INFLAMMATION SUPPRESSING AGENT COMPRISING ALTERNATIVE AUTOPHAGY INDUCING AGENT” (Shiseido Company, Ltd., priority 2018, published 2021).

What was measured:
[1] = system: NHEK cells; test: IL-1β production after ultraviolet irradiation in siRNA-treated NHEK cells (ELISA); format: cell-based, human; details: siRNA 200 nM; UV 290 to 315 nm, 15 mJ/cm^2; culture supernatant after 48 hours
Protocol: (§1) An Amaxa Human Keratinocyte Nucleofector Kit (Lonza) was used to transfect NHEK cells (8.0×10^5 cells) with siRNA to a final concentration of 200 nM. The knockdown efficiency was confirmed by the mRNA expression level of Atg5, Atg7 and Beclin1 using an RT-PCR method (FIGS. 2A, B and C). The RT-PCR primers used were primers by Sigma-Aldrich, and GAPDH (Sigma-Aldrich) was used as an internal standard for standardization of the expression levels.
The siRNA-treated NHEK cells were seeded into a 6-well plate and cultured for 24 hours. The medium was then discarded, PBS was exchanged, and irradiation was carried out with ultraviolet rays (290 to 315 nm) at a radiation intensity of 15 mJ/cm^2. Following ultraviolet irradiation, the medium was again exchanged and culturing was continued for 48 hours to obtain a culture supernatant. The IL-1β concentration of the obtained culture supernatant was evaluated using a Quantikine Human IL-1β ELISA Kit (R&D co.) (FIGS. 3A, B and C). Student's t-test was used as the statistical significance test.

[2] = system: Beclin1; test: siRNA knockdown efficiency by RT-PCR, Beclin1; format: cell-based, human; details: siRNA 200 nM in NHEK cells, GAPDH internal standard
Protocol: as §1

[3] = system: Atg5; test: siRNA knockdown efficiency by RT-PCR, Atg5; format: cell-based, human; details: siRNA 200 nM in NHEK cells, GAPDH internal standard
Protocol: as §1

[4] = system: Normal human epidermal keratinocytes (NHEK); test: IL-1β production after ultraviolet irradiation in NHEK treated with autophagy inhibitor or inducing agent (ELISA); format: cell-based; details: 3-MA 1 mM; UV 290 to 315 nm, 20 mJ/cm^2; culture supernatant after 48 hours
Protocol: Normal human epidermal keratinocytes (NHEK) (Kurabo Industries, Ltd.) were seeded in a 6-well plate and cultured to subconfluence using epidermal keratinocyte growth medium (EpiLife-KG2; Gibco Co). The medium was then exchanged with medium containing 3-methyladenine (3-MA) (by R&D Co., final concentration: 1 mM), as a known autophagy inhibitor and medium containing rapamycin (by Enzo Life Science, final concentration: 0.5 μM) as a known autophagy inducing agent, and culturing was continued for 3 hours. After culturing, the medium was discarded, PBS was added and irradiation was carried out with ultraviolet rays (290 to 315 nm) at a radiation intensity of 20 mJ/cm^2. Following ultraviolet irradiation, culturing was continued under the medium conditions described above including 3-MA or rapamycin, and after 48 hours the culture supernatant of each was obtained. The IL-1β concentration of the obtained culture supernatant was evaluated using a Quantikine Human IL-1β ELISA Kit (R&D co.) (FIGS. 1A and B). Statistical significance testing was conducted using Student's or Welch's t test.

[5] = system: Atg7; test: siRNA knockdown efficiency by RT-PCR, Atg7; format: cell-based, human; details: siRNA 200 nM in NHEK cells, GAPDH internal standard
Protocol: as §1

Row | Compound | IL-1β production induced by ultraviolet ray [1] | Beclin1 expression (mRNA) [2] | Atg5 expression (mRNA) [3] | IL-1β concentration after ultraviolet irradiation, increase [4] | Atg7 expression (mRNA) [5]
1 | Beclin1-targeted siRNA: siRNA for Beclin1 purchased from Invitrogen, SEQ ID NO: 5 and 6 (chain 1 CCAAUAAGAUGGGUCUGAAAUUUCA; chain 2 UGAAAUUUCAGACCCAUCUUAUUGG; listed as RNA, chemistry not given here) | significantly increased | suppressed |  |  | 
2 | Atg5-targeted siRNA: siRNA for Atg5 purchased from Invitrogen, SEQ ID NO: 1 and 2 (chain 1 GGUUUGGACGAAUUCCAACUUGUUU; chain 2 AAACAAGUUGGAAUUCGUCCAAACC; listed as RNA, chemistry not given here) | unchanged |  | suppressed |  | 
3 | Cn1cnc(N)c2ncnc1-2 [3-methyladenine] |  |  |  | approximately 3 fold | 
4 | Atg7-targeted siRNA: siRNA for Atg7 purchased from Invitrogen, SEQ ID NO: 3 and 4 (chain 1 GCCGUCAUUGCUGCAAGCAAGAGAA; chain 2 UUCUCUUGCUUGCAGCAAUGACGGC; listed as RNA, chemistry not given here) | unchanged |  |  |  | suppressed
